Experiments:
[1] = target: T1, P-glycoprotein (P-gp) (Homo sapiens, UniProt P08183); assay: Flux assay for P-gp substrate properties in L-MDR1 cells; format: in vitro ADME; conditions: L-MDR1 cells (P-gp overexpressing LLC-PK1), 2 hours incubation
T1 construct: expressed in transfected cells; host or cells: LLC-PK1 (pig kidney) cells transfected with human MDR1 (L-MDR1)
Experimental: The substrate properties of a substance for P-gp (ABCB1) were determined by means of a flux assay using LLC-PK1 cells which overexpress P-gp (L-MDR1 cells) [A. H. Schinkel et al., J. Clin. Invest. 96, 1698-1705 (1995)]. For this purpose, the LLC-PK1 cells or L-MDR1 cells were cultured on 96-well filter plates for 3-4 days. For determination of the permeation, the respective test substance, alone or in the presence of an inhibitor (such as Ivermectin or Verapamil, for example), was applied in a HEPES buffer to the cells either apically (A) or basally (B) and incubated for 2 hours. After 0 hours and after 2 hours, samples were taken from the cis and trans compartments. The samples were separated by HPLC using reverse phase columns. The HPLC system was coupled via a Turbo Ion Spray Interface to a Triple Quadropole mass spectrometer API 3000 (Applied Biosystems Applera, Darmstadt, Germany). The permeability was evaluated on the basis of a Papp value which was calculated using the formula published by Schwab et al. [D. Schwab et al., J. Med. Chem. 46, 1716-1725 (2003)].
Table 8 below lists permeability data for representative working examples from this assay, which was carried out in L-MDR1 cells: […]

[2] = system: tubulin; assay: Fluorescence-based microtubule polymerisation assay; format: biochemical; conditions: rate at 1 μM MMAF set at 100%
Experimental: Tubulin polymerization was investigated using the “Fluorescence-based Microtubule Polymerisation Assay Kit” from Cytoskeleton (Denver, Colo., USA; order number: BK011). With this assay, GTP is added to unpolymerized tubulin, allowing polymerization to take place spontaneously. The assay is based on the binding of the fluorophore 4′,6-diamidino-2-phenylindole (DAPI) to tubulin. Free and bound DAPI can be differentiated on the basis of different emission spectra.
In addition to the buffer control, paclitaxel, with a polymerization-increasing effect, and vinblastin, with a polymerization inhibiting effect, were run additionally as assay controls. Measurement was carried out using 96-well plates with a half base area. The kinetics of the tubulin polymerization were monitored in a Fluorimeter at 37° C. for 1 hour. The excitation wavelength was 355 nm, and emission was monitored at 460 nm. For the region of linear increase within the first 10 minutes, a calculation was made of the change in fluorescence per minute (ΔF/min), which represents the polymerization rate of the microtubuli. The potency of the test substances was quantified on the basis of their respective reduction of the polymerization rate. Table 6 below gives data for the influence of representative working examples on tubulin polymerization.

[3] = Flux assay using Caco-2 cells (cell permeability); format: in vitro ADME; conditions: human, 2 hours incubation
Experimental: The cell permeability of a substance can be investigated by means of in vitro testing in a flux assay using Caco-2 cells [M. D. Troutman and D. R. Thakker, Pharm. Res. 20 (8), 1210-1224 (2003)]. For this purpose, the cells were cultured for 15-16 days on 24-well filter plates. For the determination of permeation, the respective working example was applied in a HEPES buffer to the cells either apically (A) or basally (B) and incubated for 2 hours. After 0 hours and after 2 hours, samples were taken from the cis and trans compartments. The samples were separated by HPLC (Agilent 1200, Böblingen, Germany) using reverse phase columns. The HPLC system was coupled via a Turbo Ion Spray Interface to a Triple Quadropol mass spectrometer API 4000 (Applied Biosystems Applera, Darmstadt, Germany). The permeability was evaluated on the basis of a Papp value, which was calculated using the formula published by Schwab et al. [D. Schwab et al., J. Med. Chem. 46, 1716-1725 (2003)].

T1 sequence (P08183 whole entry): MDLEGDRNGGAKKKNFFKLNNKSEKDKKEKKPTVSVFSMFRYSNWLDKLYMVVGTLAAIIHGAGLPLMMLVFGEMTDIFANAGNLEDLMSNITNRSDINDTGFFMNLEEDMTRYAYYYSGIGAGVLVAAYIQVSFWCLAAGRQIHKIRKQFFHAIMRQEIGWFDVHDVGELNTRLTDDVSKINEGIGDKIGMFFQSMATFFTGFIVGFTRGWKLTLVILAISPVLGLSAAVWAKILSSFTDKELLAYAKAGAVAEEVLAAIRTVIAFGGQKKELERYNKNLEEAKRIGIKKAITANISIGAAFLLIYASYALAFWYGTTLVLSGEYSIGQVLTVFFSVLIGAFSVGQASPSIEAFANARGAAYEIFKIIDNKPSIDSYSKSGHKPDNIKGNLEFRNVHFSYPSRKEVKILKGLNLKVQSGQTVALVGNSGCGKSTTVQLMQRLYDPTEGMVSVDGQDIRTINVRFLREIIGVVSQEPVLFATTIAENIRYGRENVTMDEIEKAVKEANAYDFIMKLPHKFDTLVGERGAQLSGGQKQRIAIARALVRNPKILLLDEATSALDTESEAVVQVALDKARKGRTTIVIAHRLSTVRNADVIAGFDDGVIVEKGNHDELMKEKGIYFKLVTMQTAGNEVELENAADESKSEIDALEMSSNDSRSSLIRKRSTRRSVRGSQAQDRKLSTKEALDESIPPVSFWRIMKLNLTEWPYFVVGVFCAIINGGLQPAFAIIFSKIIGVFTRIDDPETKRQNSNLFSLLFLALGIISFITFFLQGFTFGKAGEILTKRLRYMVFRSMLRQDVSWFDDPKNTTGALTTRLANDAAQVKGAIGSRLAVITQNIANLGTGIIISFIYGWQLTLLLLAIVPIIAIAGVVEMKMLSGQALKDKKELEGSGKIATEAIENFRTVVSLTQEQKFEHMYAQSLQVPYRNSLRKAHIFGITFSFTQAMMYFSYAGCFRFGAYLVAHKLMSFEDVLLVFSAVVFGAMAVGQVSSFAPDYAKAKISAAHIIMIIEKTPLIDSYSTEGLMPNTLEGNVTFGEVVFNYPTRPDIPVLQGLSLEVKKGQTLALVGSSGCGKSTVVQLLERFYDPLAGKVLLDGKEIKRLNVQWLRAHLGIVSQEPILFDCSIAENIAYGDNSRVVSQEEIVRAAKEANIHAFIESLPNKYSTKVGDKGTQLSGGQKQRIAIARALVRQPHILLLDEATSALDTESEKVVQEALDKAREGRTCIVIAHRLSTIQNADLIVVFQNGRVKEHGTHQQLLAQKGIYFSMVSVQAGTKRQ

CC[C@H](C)[C@@H]([C@@H](CC(=O)N1CCC[C@H]1[C@H](OC)[C@@H](C)C(=O)N[C@@H](Cc1c[nH]c2ccccc12)C(=O)O)OC)N(C)C(=O)[C@@H](NC(=O)[C@H](C(C)C)N(C)CCCC(=O)NNC(=O)CCCCCN1C(=O)CC(SC[C@H](N)C(=O)O)C1=O)C(C)C (stereo partly drawn) [Example 22, N-(4-{2-[6-(3-{[(2R)-2-Amino-2-carboxyethyl]sulphanyl}-2,5-dioxopyrrolidin-1-yl)hexanoyl]hydrazino}-4-oxobutyl)-N-methyl-L-valyl-N-[(3R,4S,5S)-1-{(2S)-2-[(1R,2R)-3-{[(1S)-1-carboxy-2-(1H-indol-3-yl)ethyl]amino}-1-methoxy-2-methyl-3-oxopropyl]pyrrolidin-1-yl}-3-methoxy-5-methyl-1-oxoheptan-4-yl]-N-methyl-L-valinamide]
Papp (B-A) [1]: 0.4 ×10⁻⁶ cm/s
Tubulin polymerization in the presence of toxophore ([2]; toxophore 1 μM): 109%
Tubulin polymerization in the presence of toxophore ([2]; toxophore 10 μM): 27%
Papp B→A at 2 h [3]: 0.2 ×10⁻⁶ cm/s

From patent US20150023989A1, “NEW ANTIBODY DRUG CONJUGATES (ADCS) AND THE USE THEREOF” (SEATTLE GENETICS, INC., priority 2011, published 2015)
